According to patent publication US5091169A, “Dipyridoxyl phosphate NMRI contrast agent compositions” (priority 1989, dated 1992):
Read-outs that look alike come from different tables or passages of the source.

How the values were obtained:
[1] = cited from earlier work
[2] = 10 MHz, 37° C
Method: The relations of protons present in water and plasma exposed to the chelate product of Example 7 was tested by NMR for relaxities, in msec, at 10 MHz, 37° C.

selected body organs [3] = conditions: for T1, Blood / T1, Brain / T1, Large Int. / T1, Liver / T1, Renal Cort. / T1, Renal Med. / T1, Small Int. / T1, Urine / T2, Brain / T2, Large Int. / T2, Liver / T2, Renal Cort. / T2, Renal Med. / T2, Small Int. / T1, Fat / T1, Heart / T1, Lung / T1, Skel. Musc. / T1, Stom. / T2, Fat / T2, Heart / T2, Lung / T2, Skel. Musc. / T2, Stom. / T2, Urine: 30 min, 10 MHz
Method: Each of four rabbits was injected intravenously with one of the following amounts of the solution obtained in Example 7: 0.01 mmoles/kg, 0.05 mmoles/kg, 0.10 mmoles/kg and 0.20 mmoles/kg. The rabbits were sacrificed 30 min post injection, and the proton relaxation values of selected body organs were measured with NMR, in vitro at 10 MHz.

selected body organs [4] = conditions: for T1, Bile / T1, Heart / T1, Liver / T1, Renal cortex / T1, Renal medulla: 0.01 mmol/kg i.v., 10 MHz
Method: Each of seven rabbits was injected intravenously with 0.01 mmol/kg of the solution obtained in Example 7. The rabbits were sacrificed at 0.25, 0.50, 1.0, 2.0, 4, 6 and 24 hours post-injection, and the proton relation values of selected body organs were measured with NMR, in vitro, at 10 MHz.

[5] = Excerpt: (§1) The compound DPDP was studied potentiometrically from pH 11.2 to 2.0. Data sets were collected on a custom-built automatic potentiometric titration apparatus composed of a METROHM 655 DOSIMAT automatic buret, a FISHER ACCUMET pH meter with a CORNING calomel combination electrode, a custom-blown water jacketed titration cell, a BRINKMAN LAUDA K-2/R constant temperature bath and a COMMODORE 64 computer. The BASIC computer program TITRATOR (Harris, W. et al, J.Am.Chem.Soc. 101:6534 (1979)) runs the apparatus. Data analysis was performed on an IBM-AT computer using the least squares program, BETA (Harris, W. et al, supra), and the data analysis program, HANDNBAR (Harris, W. et al, supra). The titrants were standardized by phenophthalein titration as follows: KOH was calibrated against potassium hydrogen phthalate (a primary standard), and HCl solutions were calibrated against the KOH standard. The Mn(II)Cl2 solution was standardized with an EDTA titration using Erichrome Black T as the indicator. All solutions were made from distilled, deionized water that was further purified on a MILLI-Q cartridge system, degassed, and then kept under an atmosphere of argon which had been scrubbed for CO2 and O2. Additions of EDTA and Mn(II) solutions were performed using calibrated GILMOT pipets. The electrode was calibrated in concentration units with degassed solutions of p[H+]=2.291 and 1.078 at 0.1 M ionic strength.
The metal complex titration was performed by adding 152.2 mg (0.2383 mmoles) to 74.6 ml of a high pH aqueous solution. 2.07 ml of a 0.1152 M Mn(II) solution (0.2386 mmoles) were added. The complex was then titrated to low pH with 1.002 N HCl.

[6] = Potentiometric titration of DPDP (ligand proton titration); assay type: physicochemical; conditions: pH of 3 and above
Excerpt: as §1, with “The electrode was calibrated in concentration units with degassed solutions of p[H+]=2.291 and 1.078 at 0.1 M ionic strength.” left out

## O=C([O-])C(NCCNC(C(=O)[O-])c1ccccc1O)c1ccccc1O.[Mn+2] (stereo not shown) [Mn(II) chelates of EHPG]
[1]; above pH 5, Frost et al
  stability of manganese(II) complex: irreversibly oxidized

## O=C(O)CN(CCN(CC(=O)O)Cc1ccccc1O)Cc1ccccc1O [HBED, N,N'-bis(2-hydroxybenzyl)ethylenediamine-N,N'-diacetic acid]
[1]; L'Eplathenier et al titrations
  oxidation of manganese(II) during titration: the manganese(II) ion was oxidized by the phenolic ligand

## Cc1ncc(COP(=O)(O)O)c(CN(CCN(CC(=O)[O-])Cc2c(COP(=O)(O)O)cnc(C)c2O)CC(=O)[O-])c1O.[Mn+2] [Mn(DPDP), manganese chelate complex of N,N'-bis-(pyridoxal-5-phosphate)ethylenediamine-N,N'-diacetic acid]
[2]; 0.000039 Molar
  T1 (Plasma): 1103 ms
[2]; 0.000078 Molar
  T1 (Plasma): 995 ms
[2]; 0.000156 Molar
  T1 (Plasma): 856 ms
  T1 (Water): 1470 ms
[2]; 0.000312 Molar
  T1 (Plasma): 624 ms
  T1 (Water): 1083 ms
[2]; 0.000625 Molar
  T1 (Plasma): 398 ms
  T1 (Water): 639 ms
[2]; 0.00125 Molar
  T1 (Plasma): 240 ms
  T1 (Water): 332 ms
[2]; 0.0025 Molar
  T1 (Plasma): 139 ms
  T1 (Water): 175 ms
  T2 (Plasma): 124 ms
[2]; 0.005 Molar
  T1 (Plasma): 74 ms
  T1 (Water): 100 ms
  T2 (Plasma): 68 ms
  T2 (Water): 86 ms
[2]; 0.010 Molar
  T1 (Plasma): 40 ms
  T1 (Water): 43 ms
  T2 (Plasma): 34 ms
  T2 (Water): 41 ms
Selected body organs [3]; 0.01 mmol/kg i.v.
  T1, Blood: 844 ms
  T1, Brain: 554 ms
  T1, Large Int.: 283 ms
  T1, Liver: 176 ms
  T1, Renal Cort.: 298 ms
  T1, Renal Med.: 502 ms
  T1, Small Int.: 324 ms
  T1, Urine: 821 ms
  T2, Brain: 76 ms
  T2, Large Int.: 64 ms
  T2, Liver: 39 ms
  T2, Renal Cort.: 65 ms
  T2, Renal Med.: 99 ms
  T2, Small Int.: 72 ms
Selected body organs [3]; 0.05 mmol/kg i.v.
  T1, Blood: 613 ms
  T1, Brain: 496 ms
  T1, Fat: 200 ms
  T1, Heart: 353 ms
  T1, Large Int.: 365 ms
  T1, Liver: 76 ms
  T1, Lung: 575 ms
  T1, Renal Cort.: 210 ms
  T1, Renal Med.: 223 ms
  T1, Skel. Musc.: 494 ms
  T1, Small Int.: 237 ms
  T1, Stom.: 245 ms
  T1, Urine: 150 ms
  T2, Brain: 82 ms
  T2, Fat: 139 ms
  T2, Heart: 54 ms
  T2, Large Int.: 83 ms
  T2, Liver: 31 ms
  T2, Lung: 113 ms
  T2, Renal Cort.: 57 ms
  T2, Renal Med.: 57 ms
  T2, Skel. Musc.: 47 ms
  T2, Small Int.: 52 ms
  T2, Stom.: 41 ms
  T2, Urine: 136 ms
Selected body organs [3]; 0.10 mmol/kg i.v.
  T1, Blood: 506 ms
  T1, Brain: 590 ms
  T1, Fat: 183 ms
  T1, Heart: 300 ms
  T1, Large Int.: 290 ms
  T1, Liver: 65 ms
  T1, Lung: 435 ms
  T1, Renal Cort.: 188 ms
  T1, Renal Med.: 209 ms
  T1, Skel. Musc.: 425 ms
  T1, Small Int.: 218 ms
  T1, Stom.: 242 ms
  T1, Urine: 90 ms
  T2, Brain: 90 ms
  T2, Fat: 115 ms
  T2, Heart: 51 ms
  T2, Large Int.: 57 ms
  T2, Liver: 23 ms
  T2, Lung: 61 ms
  T2, Renal Cort.: 55 ms
  T2, Renal Med.: 48 ms
  T2, Skel. Musc.: 31 ms
  T2, Small Int.: 46 ms
  T2, Stom.: 52 ms
  T2, Urine: 75 ms
Selected body organs [3]; 0.20 mmol/kg i.v.
  T1, Blood: 411 ms
  T1, Brain: 352 ms
  T1, Fat: 192 ms
  T1, Heart: 205 ms
  T1, Large Int.: 256 ms
  T1, Liver: 68 ms
  T1, Lung: 376 ms
  T1, Renal Cort.: 143 ms
  T1, Renal Med.: 127 ms
  T1, Skel. Musc.: 232 ms
  T1, Small Int.: 131 ms
  T1, Stom.: 271 ms
  T2, Brain: 66 ms
  T2, Heart: 47 ms
  T2, Large Int.: 74 ms
  T2, Liver: 25 ms
  T2, Lung: 63 ms
  T2, Renal Cort.: 53 ms
  T2, Renal Med.: 60 ms
  T2, Skel. Musc.: 31 ms
  T2, Small Int.: 46 ms
  T2, Stom.: 53 ms
Selected body organs [3]; dose range studied
  heart uptake vs dose: the heart continues to uptake Mn(DPDP) through the dose range studied
Selected body organs [3]; heart, liver and kidneys, i.v.
  uptake in organs: rapid uptake of the Mn(DPDP) in the heart, liver and kidneys
Selected body organs [3]; higher doses
  brain uptake: uptake by the brain was observed at higher doses
Selected body organs [3]; i.v., 30 min post injection
  saturating dose, liver and kidneys: 0.10 mmol/kg
Selected body organs [4]; 0.25 hr
  T1, Bile: 160 ms
  T1, Heart: 231 ms
  T1, Liver: 68 ms
  T1, Renal cortex: 202 ms
  T1, Renal medulla: 192 ms
Selected body organs [4]; 0.50 hr
  T1, Bile: 46 ms
  T1, Heart: 352 ms
  T1, Liver: 76 ms
  T1, Renal cortex: 191 ms
  T1, Renal medulla: 231 ms
Selected body organs [4]; 1.0 hr
  T1, Bile: 25 ms
  T1, Heart: 381 ms
  T1, Liver: 48 ms
  T1, Renal cortex: 229 ms
  T1, Renal medulla: 236 ms
Selected body organs [4]; 2 hr
  T1, Bile: 21 ms
  T1, Heart: 507 ms
  T1, Liver: 48 ms
  T1, Renal cortex: 192 ms
  T1, Renal medulla: 310 ms
Selected body organs [4]; 4 hr
  T1, Bile: < 1 ms
  T1, Heart: 522 ms
  T1, Liver: 145 ms
  T1, Renal cortex: 210 ms
  T1, Renal medulla: 340 ms
Selected body organs [4]; 6 hr
  T1, Bile: 14 ms
  T1, Heart: 663 ms
  T1, Liver: 209 ms
  T1, Renal cortex: 239 ms
  T1, Renal medulla: 375 ms
Selected body organs [4]; 24 hr
  T1, Bile: 107 ms
  T1, Heart: 660 ms
  T1, Liver: 315 ms
  T1, Renal cortex: 328 ms
  T1, Renal medulla: 563 ms
Selected body organs [4]; liver, renal cortex, renal medulla and heart
  uptake and clearance: rapid uptake and clearance of Mn(DPDP) in the liver, renal cortex, renal medulla and heart
Selected body organs [4]; post-injection, i.v.
  clearance time through renal and hepatobiliary systems: 6 to 8 h
[5]; Mn(II) chelate, titrated from pH 11.1 to 2.0
  log Kf (formation constant): 14.8
[5]; physiological pH
  binding of Mn(II) ion: quantitatively bound to the chelating agent
[5]; titration data
  pH below which chelate begins to demetallate: below 4.5
blood-brain barrier; defect in blood-brain barrier
  collection in extravascular space: large amounts of the complex of Mn(DPDP) collect in the extravascular space
blood-brain barrier; not observable without Mn(DPDP) as contrast agent
  observation of blood-brain barrier defects by NMRI: such defects were observed by NMRI tomography

## Cc1ncc(COP(=O)(O)O)c(CN(CCN(CC(=O)O)Cc2c(COP(=O)(O)O)cnc(C)c2O)CC(=O)O)c1O [DPDP, N,N'-bis(3-hydroxy-2-methyl-5-phosphonomethyl-4-pyridylmethyl)ethylenediamine-N,N'-diacetic acid]
[6]
  ligand charge / deprotonation state: anionic and possesses deprotonated metal binding sites

## O=C([O-])CN(CCN(CC(=O)[O-])Cc1ccccc1O)Cc1ccccc1O.[Mn+2] [manganese chelate of N,N'-bis(2-hydroxybenzyl)ethylenediamine-N,N'-diacetic acid]
[1]; manganese chelate, reported by L'Eplathenier et al
  log Kf (formation constant): 14.8
